# Experimental data taken from patent US11542249B2, “BTK inhibitor compounds” (Eli Lilly and Company, priority 2017, dated 2023).
# Tests used:
# human BTK = human BTK (Homo sapiens (Human), UniProt Q06187); assay: BTK LANTHASCREEN Eu Kinase Binding Assay; conditions: IC50 value ± standard deviation; full-length His-labeled BTK, kinase tracer 236; read-out: hBTK Rel IC50
# [1] = test system: type II collagen-induced arthritis (CIA) rat model; assay: Rat In Vivo Collagen-Induced Arthritis Assay; parameters: species or system Female Lewis rats; conditions: for % inhibition paw thickness AUC vs Vehicle control / % paw thickness AUC (mm) ± SE: CIA rats, 9 days
# Description: A type II collagen-induced arthritis (CIA) rat model may be used to evaluate the therapeutic effects of compounds. Female Lewis rats (Charles River Charles River Laboratories, Inc.) with a mean body weight of 155-175 g are used for the study. Animals are fed with standard rodent chow and provided water ad libitum. Immunization emulsion is prepared with 2 mg/ml bovine collagen-II mixed with an equal volume of incomplete Freund's adjuvant (IFA). Rats are immunized intradermally with 0.4 ml collagen emulsion in two sites each on the lower lumbar region, above the base of the tail on day 1, and again on day 8. Animals are randomized based on the paw thickness and body weight on day 11 into study groups, with 8 rats in each group. Compounds are prepared in 1% HEC/0.25% P80/0.05% anti-foam in purified water and dosed daily via oral gavage for 9 days. Paw thickness is quantitated daily using a caliper measurement in the right ankle site.
# The inhibition by the compounds of the invention is evaluated using Dunnett's post test for multiple comparisons for the CIA rat groups treated with the indicated Example compound, at the indicated dose, as compared to CIA rat groups treated with vehicle, and differences of P<0.05 are considered to be significant. […] Mean sum paw thickness is decreased compared to vehicle treated CIA rats. Mean percent paw thickness inhibition during the treatment period illustrates dose-related improvement.
# Table 4 indicates the in vivo activity for exemplified BTK inhibitors in the collagen-induced arthritis model (SE=standard error).
# normal rats = assay: In vivo administration to normal rats for four days (tolerability/toxicity)
# From the text: Compounds of the invention, for instance Example 1, show an advantageous combination of pharmacological properties, such as potency, high oral in vivo availabilty, in vivo efficacy, and a favorable toxicity profile in preclinical testing.
# human EGFR = human EGFR (Homo sapiens (Human), UniProt P00533); assay: EGFR LANTHASCREEN Eu Kinase Binding Assay; conditions: IC50 value ± standard deviation; truncated GST-labeled EGFR, kinase tracer 199; read-out: hEGFR Rel IC50
# Rat Oral Bioavailability = format: in vivo, Sprague-Dawley rats; conditions: Sprague-Dawley, plasma, PO 3 mg/kg vs IV 1 mg/kg, read-out: Rat Oral Bioavailability (% F)
# Description: The test compound is administered to Sprague-Dawley rats intravenously (IV) at 1 mg/kg (using vehicles of either: 20% CAPTISOL® in 25 mM sodium phosphate buffer, pH2 quantum satis; or 25% DMA, 15% EtOH, 10% propylene glycol, 25% 2-pyrrolidone, and 25% purified water) and orally (PO) at 3 mg/kg (using a vehicle of 1% hydroxyethyl cellulose, 0.25% polysorbate 80, 0.05% Antifoam 1510-US, and purified water quantum satis). Serial blood samples are collected at 0.08, 0.25, 0.5, 1, 2, 4, 8, and 12 h post dose for IV bolus and at 0.25, 0.5, 1, 2, 4, 8, and 12 h post dose after oral administration. After treatment with an EDTA […], plasma is obtained by centrifugation and stored at −70° C. until analysis by LC-MS/MS. Test article concentration is determined in plasma and uploaded into the Watson LIMS™ system where noncompartmental analysis is used to calculate Area Under the Curve (AUC) for both IV and PO arms. Bioavailability (% F) is calculated via the following equation, %F=(AUCPO×DoseIV)/(AUCIV×DosePO)×100. Table 3 indicates the rat oral bioavailability of select BTK inhibitors.
# [2] = test system: activated B cells in human whole blood (CD69); assay: Human Whole Blood CD69 in vitro assay (B cell activation, flow cytometry); format: cell-based; conditions: IC50 value ± standard deviation, anti-human-IgD-Dextran stimulation, read-out: HWB CD69 Rel IC50
# human EGFR, sequence (P00533 668-1210): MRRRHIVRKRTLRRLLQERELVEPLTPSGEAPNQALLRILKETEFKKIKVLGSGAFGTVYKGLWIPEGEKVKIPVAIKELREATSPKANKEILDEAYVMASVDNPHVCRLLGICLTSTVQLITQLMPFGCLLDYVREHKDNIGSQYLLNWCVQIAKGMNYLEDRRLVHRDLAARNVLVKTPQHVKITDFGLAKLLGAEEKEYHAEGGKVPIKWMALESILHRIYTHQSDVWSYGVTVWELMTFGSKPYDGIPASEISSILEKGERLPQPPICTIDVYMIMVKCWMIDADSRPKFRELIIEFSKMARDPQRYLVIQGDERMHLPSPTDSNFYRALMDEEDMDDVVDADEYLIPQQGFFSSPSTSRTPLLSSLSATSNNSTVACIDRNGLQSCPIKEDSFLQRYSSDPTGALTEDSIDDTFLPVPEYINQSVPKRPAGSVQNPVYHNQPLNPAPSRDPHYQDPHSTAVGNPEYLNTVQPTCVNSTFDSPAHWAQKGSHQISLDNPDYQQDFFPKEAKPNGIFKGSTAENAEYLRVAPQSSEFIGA
# human BTK, sequence (Q06187 whole entry): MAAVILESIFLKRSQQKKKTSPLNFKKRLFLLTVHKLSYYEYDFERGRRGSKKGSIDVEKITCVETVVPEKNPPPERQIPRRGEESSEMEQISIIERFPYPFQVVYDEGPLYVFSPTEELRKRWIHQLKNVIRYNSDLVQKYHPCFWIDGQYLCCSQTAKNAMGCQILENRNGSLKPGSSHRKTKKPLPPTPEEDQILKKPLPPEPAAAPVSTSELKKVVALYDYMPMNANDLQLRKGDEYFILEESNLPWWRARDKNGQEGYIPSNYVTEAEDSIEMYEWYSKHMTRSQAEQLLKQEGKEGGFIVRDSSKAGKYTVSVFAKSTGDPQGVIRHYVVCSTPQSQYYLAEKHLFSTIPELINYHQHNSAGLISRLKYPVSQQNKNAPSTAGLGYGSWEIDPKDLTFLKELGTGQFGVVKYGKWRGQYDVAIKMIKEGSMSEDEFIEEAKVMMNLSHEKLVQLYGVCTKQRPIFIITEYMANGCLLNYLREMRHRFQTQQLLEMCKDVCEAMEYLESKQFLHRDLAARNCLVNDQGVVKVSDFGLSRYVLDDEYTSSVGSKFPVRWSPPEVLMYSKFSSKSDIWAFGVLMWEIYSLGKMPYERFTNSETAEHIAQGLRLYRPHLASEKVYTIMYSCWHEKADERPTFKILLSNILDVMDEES
compound,measurement,setting,value
"C=CC(=O)N1CCC(Nc2cncc(-c3cnc(Oc4cccc(Cl)c4)nc3)c2)CC1 [Example 1, 1-[4-[[5-[2-(3-chlorophenoxy)pyrimidin-5-yl]-3-pyridyl]amino]-1-piperidyl]prop-2-en-1-one]",IC50,human BTK,25.3 ± 5.42 nM
same,% inhibition paw thickness AUC vs Vehicle control,[1]; 0.5 mg/kg/d oral,23%
same,% paw thickness AUC (mm) ± SE,[1]; 0.5 mg/kg/d oral,73.9 ± 2.5 mm
same,% inhibition paw thickness AUC vs Vehicle control,[1]; 1 mg/kg/d oral,47%
same,% paw thickness AUC (mm) ± SE,[1]; 1 mg/kg/d oral,69.6 ± 2.0 mm
same,% inhibition paw thickness AUC vs Vehicle control,[1]; 3 mg/kg/d oral,81%
same,% paw thickness AUC (mm) ± SE,[1]; 3 mg/kg/d oral,63.4 ± 1.3 mm
same,arthritis severity in CIA rats,[1]; compared to vehicle treated CIA rats,dose-related reduction
same,tolerability when administered in vivo,normal rats,generally well tolerated
same,toxicity in vivo,normal rats,advantageous lack of toxicity
same,IC50,human EGFR,470 ± 93.6 nM
same,bioavailability,Rat Oral Bioavailability,74%
same,IC50,[2],393 ± 128 nM
